According to patent US11110105B2, “Compounds, composition and uses thereof for treating cancer” (INSTITUT GUSTAVE ROUSSY, priority 2017, dated 2021):

Columns and labels:
spliceosome (SF3B1) = spliceosome (SF3B1) (Homo sapiens, UniProt O75533+Q7RTV0); settings: in vivo; cited from earlier work
Water solubility = type: physicochemical

Chain of spliceosome (SF3B1) (Q7RTV0 whole entry, canonical isoform): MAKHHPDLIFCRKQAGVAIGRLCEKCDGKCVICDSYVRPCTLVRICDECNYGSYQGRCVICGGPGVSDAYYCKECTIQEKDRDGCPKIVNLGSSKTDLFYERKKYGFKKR
Chain of spliceosome (SF3B1) (Q15393 whole entry, further chain, canonical isoform): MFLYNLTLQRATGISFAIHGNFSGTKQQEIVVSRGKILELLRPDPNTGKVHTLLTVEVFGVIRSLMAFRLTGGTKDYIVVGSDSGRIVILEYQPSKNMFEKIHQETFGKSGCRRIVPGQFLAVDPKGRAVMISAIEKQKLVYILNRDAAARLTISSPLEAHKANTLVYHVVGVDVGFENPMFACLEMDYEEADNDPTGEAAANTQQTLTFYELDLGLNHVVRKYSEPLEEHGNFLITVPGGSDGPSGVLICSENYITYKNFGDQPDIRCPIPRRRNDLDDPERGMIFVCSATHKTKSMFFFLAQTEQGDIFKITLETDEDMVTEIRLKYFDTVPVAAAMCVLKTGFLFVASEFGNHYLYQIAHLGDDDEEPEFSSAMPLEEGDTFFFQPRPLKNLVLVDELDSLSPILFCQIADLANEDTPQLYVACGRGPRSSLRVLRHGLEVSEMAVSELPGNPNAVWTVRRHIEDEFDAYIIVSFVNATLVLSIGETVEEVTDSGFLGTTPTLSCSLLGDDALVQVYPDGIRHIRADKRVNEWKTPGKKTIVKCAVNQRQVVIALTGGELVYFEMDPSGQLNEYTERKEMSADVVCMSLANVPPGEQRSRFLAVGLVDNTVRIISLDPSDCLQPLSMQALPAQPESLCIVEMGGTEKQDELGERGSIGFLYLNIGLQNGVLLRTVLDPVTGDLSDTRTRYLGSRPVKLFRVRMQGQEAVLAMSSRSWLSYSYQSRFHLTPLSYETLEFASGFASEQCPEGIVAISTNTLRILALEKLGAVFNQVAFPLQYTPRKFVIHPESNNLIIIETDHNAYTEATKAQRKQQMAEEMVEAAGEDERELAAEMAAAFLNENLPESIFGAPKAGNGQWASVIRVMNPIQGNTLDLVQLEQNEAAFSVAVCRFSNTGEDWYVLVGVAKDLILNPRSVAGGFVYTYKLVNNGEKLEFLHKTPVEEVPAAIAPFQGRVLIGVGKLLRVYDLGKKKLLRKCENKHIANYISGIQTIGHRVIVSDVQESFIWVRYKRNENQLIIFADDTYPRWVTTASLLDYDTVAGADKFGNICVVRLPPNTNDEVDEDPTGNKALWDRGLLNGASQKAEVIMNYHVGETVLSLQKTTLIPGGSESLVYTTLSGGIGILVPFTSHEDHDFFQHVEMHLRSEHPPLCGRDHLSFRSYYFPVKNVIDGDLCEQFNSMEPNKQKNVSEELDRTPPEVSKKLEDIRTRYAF
Chain of spliceosome (SF3B1) (Q9BWJ5 whole entry, further chain, canonical isoform): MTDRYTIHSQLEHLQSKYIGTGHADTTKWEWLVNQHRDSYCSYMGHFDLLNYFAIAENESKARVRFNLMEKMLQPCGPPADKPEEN
Chain of spliceosome (SF3B1) (O75533 whole entry, canonical isoform): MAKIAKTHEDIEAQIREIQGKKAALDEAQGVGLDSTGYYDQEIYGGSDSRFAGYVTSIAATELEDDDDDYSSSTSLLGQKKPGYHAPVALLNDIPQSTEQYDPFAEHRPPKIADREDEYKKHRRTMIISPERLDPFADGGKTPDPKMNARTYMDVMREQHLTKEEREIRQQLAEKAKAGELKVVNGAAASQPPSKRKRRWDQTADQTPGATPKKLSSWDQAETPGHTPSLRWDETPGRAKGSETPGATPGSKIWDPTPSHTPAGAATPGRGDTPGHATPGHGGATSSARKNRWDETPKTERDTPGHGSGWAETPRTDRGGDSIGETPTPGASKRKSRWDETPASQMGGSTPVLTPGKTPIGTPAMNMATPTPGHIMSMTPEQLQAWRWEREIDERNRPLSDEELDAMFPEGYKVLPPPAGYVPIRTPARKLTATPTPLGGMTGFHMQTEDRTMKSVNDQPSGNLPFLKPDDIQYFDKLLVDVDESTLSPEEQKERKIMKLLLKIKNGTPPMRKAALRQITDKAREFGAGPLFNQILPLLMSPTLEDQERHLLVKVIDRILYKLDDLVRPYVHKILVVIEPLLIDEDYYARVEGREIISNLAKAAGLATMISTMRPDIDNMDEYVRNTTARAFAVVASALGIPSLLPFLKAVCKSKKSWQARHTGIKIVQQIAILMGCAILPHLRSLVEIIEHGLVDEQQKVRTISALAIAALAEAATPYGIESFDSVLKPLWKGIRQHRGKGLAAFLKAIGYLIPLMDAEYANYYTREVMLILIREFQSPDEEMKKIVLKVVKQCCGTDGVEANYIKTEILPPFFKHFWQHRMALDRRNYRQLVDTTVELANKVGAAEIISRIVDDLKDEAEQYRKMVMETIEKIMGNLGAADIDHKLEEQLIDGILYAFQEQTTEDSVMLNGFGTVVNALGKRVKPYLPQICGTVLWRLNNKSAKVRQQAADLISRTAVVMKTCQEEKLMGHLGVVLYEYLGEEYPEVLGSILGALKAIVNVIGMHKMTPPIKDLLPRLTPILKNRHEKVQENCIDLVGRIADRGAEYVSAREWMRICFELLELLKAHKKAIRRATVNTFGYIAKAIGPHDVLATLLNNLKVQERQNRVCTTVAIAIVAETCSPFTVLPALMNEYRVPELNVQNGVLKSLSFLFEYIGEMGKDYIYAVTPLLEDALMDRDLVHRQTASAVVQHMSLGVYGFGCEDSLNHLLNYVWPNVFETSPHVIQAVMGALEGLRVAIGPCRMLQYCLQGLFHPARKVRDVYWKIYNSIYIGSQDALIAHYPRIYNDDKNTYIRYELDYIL

SMILES | outcome of testing in human (spliceosome (SF3B1)) | water solubility (Water solubility)
CC[C@H](O)[C@@H](C)[C@H]1O[C@@H]1C[C@@](C)(O)/C=C/C=C(\C)[C@H]1OC(=O)C[C@H](O)CC[C@@](C)(O)[C@@H](OC(=O)N2CCN(C3CCCCCC3)CC2)/C=C/[C@@H]1C [E7107] | stopped because of problems of toxicity | 
COc1ccc(-c2cc(=O)c3c([O-])cc(OP(=O)(O)O)c(-c4cc(-c5cc(=O)c6c([O-])cc(OP(=O)(O)O)cc6o5)ccc4OC)c3o2)cc1.[Na+].[Na+] [Compound 2] |  | considerably higher than that of the parent compound isoginkgetin
